In one experiment the target is WT KRAS (Homo sapiens, UniProt P01116). The experiment is described as follows: KRAS WT Probe Displacement Assay (TR-FRET, GDP-loaded). The experiment is classed as binding. The source says: (§1) The synthetic routes of probe 1 and 2, which have been disclosed in PCT/CN2022/070676, are hereby incorporated herein.
Background: TR-FRET usually uses a lanthanide donor and a delayed reading to cut background.

A further experiment has as its target KRAS G12D (Homo sapiens, UniProt P01116, G12D). The experiment is described as follows: KRAS G12D Probe Displacement Assay (TR-FRET, GDP-loaded). The experiment is classed as binding.
Excerpt: as §1

Where [1] appears, read: KRAS WT, read-out: KRAS^WT Probe Displacement Assay IC50.
Where [2] appears, read: KRAS G12D, read-out: KRAS^G12D Probe Displacement Assay IC50.

SMILES strings stand for the structures. Read-outs that look alike come from different tables or passages of the source.

Sequence of WT KRAS (P01116 1-188 isoform P01116-2): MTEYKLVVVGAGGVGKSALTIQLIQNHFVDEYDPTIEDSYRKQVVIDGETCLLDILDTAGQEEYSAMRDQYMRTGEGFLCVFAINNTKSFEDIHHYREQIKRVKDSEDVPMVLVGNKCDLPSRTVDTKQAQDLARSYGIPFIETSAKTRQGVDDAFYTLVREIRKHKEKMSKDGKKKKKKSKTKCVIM
Sequence of KRAS G12D (P01116 1-188 isoform P01116-2 G12D): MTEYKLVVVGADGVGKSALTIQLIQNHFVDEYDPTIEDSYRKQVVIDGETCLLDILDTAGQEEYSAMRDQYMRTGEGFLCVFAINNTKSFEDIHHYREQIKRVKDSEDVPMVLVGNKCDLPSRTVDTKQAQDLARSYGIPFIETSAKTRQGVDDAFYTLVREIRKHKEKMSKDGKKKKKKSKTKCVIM

On to `Cc1nc(N)cc(-c2nc3c4c(nc(OC[C@]5(CN(C)C)CC5(F)F)nc4c2F)N2C[C@H]4CC[C@H](N4)[C@H]2CCO3)c1C(F)(F)F` [Example 48, 4-((6aR,7S,10R)-13-(((R)-1-((dimethylamino)methyl)-2,2-difluorocyclopropyl)methoxy)-1-fluoro-5,6,6a,7,8,9,10,11-octahydro-4-oxa-3,11a,12,14,15-pentaaza-7,10-methanocyclohepta[4,5]cycloocta [1,2,3-de]naphthalen-2-yl)-6-methyl-5-(trifluoromethyl)pyridin-2-amine], for which the IC50 at WT KRAS (setting [1]) is 3 to 1000 nM; on KRAS G12D (setting [2]), less than 0.3 nM.

With `Cc1cc(N)cc(-c2nc3c4c(nc(OCC5(CN6CCCC(C)(O)C6)CC5)nc4c2F)N2C[C@H]4CC[C@H](N4)[C@H]2CCO3)c1C(F)(F)F` (mixture of isomers) [Example 116, 1-((1-((((6aR,7S, 10R)-2-(5-amino-3-methyl-2-(trifluoromethyl)phenyl)-1-fluoro-5,6,6a,7,8,9,10,11-octahydro-4-oxa-3,11a,12,14,15-pentaaza-7,10-methanocyclohepta [4,5]cycloocta [1,2,3-de]naphthalen-13-yl)oxy)methyl)cyclopropyl)methyl)-3-methylpiperidin-3-ol], the figures for the IC50 on WT KRAS (setting [1]) and on KRAS G12D (setting [2]) were 3 to 1000 nM and 0.3 to 3 nM, respectively.

Regarding `Cc1cc(N)cc(-c2nc3c4c(nc(OCC5(CN6CCOCC(F)C6)CC5)nc4c2F)N2C[C@H]4CC[C@H](N4)[C@H]2CCO3)c1C(F)(F)F` (stereo partly drawn) [Example 153, 3-((6aR,7S,10R)-1-fluoro-13-((1-((6-fluoro-1,4-oxazepan-4-yl)methyl)cyclopropyl)methoxy)-5,6,6a,7,8,9,10,11-octahydro-4-oxa-3,11a,12,14,15-pentaaza-7,10-methano-cyclohepta[4,5]cycloocta [1,2,3-de]naphthalen-2-yl)-5-methyl-4-(trifluoromethyl) aniline], the IC50 at WT KRAS (KRAS^WT Probe Displacement Assay IC50, KRAS WT) is 3 to 1000 nM; on KRAS G12D (KRAS^G12D Probe Displacement Assay IC50, KRAS G12D), less than 0.3 nM.

As for `Cc1cc(N)cc(-c2nc3c4c(nc(OC[C@@H]5OC[C@H]5N(C)C)nc4c2F)N2C[C@H]4CC[C@H](N4)[C@H]2CCO3)c1C(F)(F)F` [Example 130, (2R,3R)-2-((((6aR,7S,10R)-2-(5-amino-3-methyl-2-(trifluoromethyl)phenyl)-1-fluoro-5,6,6a,7,8,9,10,11-octahydro-4-oxa-3,11a,12,14,15-pentaaza-7,10-methanocyclohepta[4,5]cycloocta [1,2,3-de]naphthalen-13-yl)oxy)methyl)-N,N-dimethyloxetan-3-amine], the half-inhibitory concentration (IC50) was 3 to 1000 nM at WT KRAS (setting [1]) and 0.3 to 3 nM on KRAS G12D (setting [2]).

On to `Cc1cc(N)cc(-c2nc3c4c(nc(O[C@@H](C)[C@@H]5C[C@@H](F)CN5C)nc4c2F)N2C[C@H]4CC[C@H](N4)[C@H]2CCO3)c1C(F)(F)F` [Example 74, 3-((6aR,7S,10R)-1-fluoro-13-((S)-1-((2S,4R)-4-fluoro-1-methylpyrrolidin-2-yl)ethoxy)-5,6,6a,7,8,9,10,11-octahydro-4-oxa-3,11a,12,14,15-pentaaza-7,10methanocyclohepta[4,5]cycloocta [1,2,3-de]naphthalen-2-yl)-5-methyl-4-(trifluoromethyl)aniline], for which the IC50 is 3 to 1000 nM on WT KRAS (setting [1]) and less than 0.3 nM at KRAS G12D (setting [2]).

Consider `Cc1cc(N)cc(-c2nc3c4c(nc(O[C@H]5COCC[C@@H]5N(C)C)nc4c2F)N2C[C@H]4CC[C@H](N4)[C@H]2CCO3)c1C(F)(F)F` [Example 8, (3R,4S)-3-(((6aR,7S,10R)-2-(5-amino-3-methyl-2-(trifluoromethyl)phenyl)-1-fluoro-5,6,6a,7,8,9,10,11-octahydro-4-oxa-3,11a,12,14,15-pentaaza-7,10-methanocyclohepta[4,5]cycloocta [1,2,3-de]naphthalen-13-yl)oxy)-N,N-dimethyltetrahydro-2H-pyran-4-amine], for which the IC50 fell in the range of 3 to 1000 nM on WT KRAS (setting [1]) and 0.3 to 3 nM on KRAS G12D (setting [2]).

Take `CO[C@@H]1CCN(CC2(COc3nc4c5c(nc(-c6cc(N)cc(C)c6C(F)(F)F)c(F)c5n3)OCC[C@@H]3[C@@H]5CC[C@H](CN43)N5)CC2)C1` [Example 87, 3-((6aR,7S,10R)-1-fluoro-13-((1-(((R)-3-methoxypyrrolidin-1-yl)methyl)cyclopropyl)methoxy)-5,6,6a,7,8,9,10,11-octahydro-4-oxa-3,11a,12,14,15-pentaaza-7,10-methanocyclohepta [4,5]cycloocta [1,2,3-de]naphthalen-2-yl)-5-methyl-4-(trifluoromethyl)aniline]: the IC50 on WT KRAS (setting [1]) is 3 to 1000 nM; on KRAS G12D (setting [2]), less than 0.3 nM.

As for `Cc1cc(N)cc(-c2nc3c4c(nc(OCC5(CN6CCC[C@@H]6C)CC5)nc4c2F)N2C[C@H]4CC[C@H](N4)[C@H]2CCO3)c1C(F)(F)F` [Example 123, 3-((6aR,7S,10R)-1-fluoro-13-((1-(((S)-2-methylpyrrolidin-1-yl)methyl)cyclopropyl)methoxy)-5,6,6a, 7,8,9,10,11-octahydro-4-oxa-3,11a,12,14,15-pentaaza-7,10-methanocyclohepta [4,5]cycloocta [1,2,3-de]naphthalen-2-yl)-5-methyl-4-(trifluoromethyl)aniline], the IC50 on WT KRAS (setting [1]) is 3 to 1000 nM; at KRAS G12D (setting [2]) it was less than 0.3 nM.

`Cc1cc(N)cc(-c2nc3c4c(nc(OCC5(CN6CC=CC6CO)CC5)nc4c2F)N2C[C@H]4CC[C@H](N4)[C@H]2CCO3)c1C(F)(F)F` (stereo partly drawn) [Example 161, (1-((1-((((6aR,7S,10R)-2-(5-amino-3-methyl-2-(trifluoromethyl)phenyl)-1-fluoro-5,6,6a,7,8,9,10,11-octahydro-4-oxa-3,11a,12,14,15-pentaaza-7,10-methanocyclohepta[4,5]cycloocta[1,2,3-de]naphthalen-13-yl)oxy)methyl)cyclopropyl)methyl)-2,5-dihydro-1H-pyrrol-2-yl)methanol]: the IC50 is 3 to 1000 nM on WT KRAS (setting [1]) and less than 0.3 nM at KRAS G12D (setting [2]).

For the molecule `CN1CCN(C)C(C)(COc2nc3c4c(nc(-c5cc(N)cc(Cl)c5C(F)(F)F)c(F)c4n2)OCC[C@@H]2[C@@H]4CC[C@H](CN32)N4)C1` (single isomer, unassigned) [Example 3], the results for the IC50 at WT KRAS (setting [1]) and on KRAS G12D (setting [2]) were 3 to 1000 nM and less than 0.3 nM, respectively.

`Cc1cc(N)cc(-c2nc3c4c(nc(OCC5(CN6CCC7(CC6)COC7)CC5)nc4c2F)N2C[C@H]4CC[C@H](N4)[C@H]2CCO3)c1C(F)(F)F` [Example 102, 3-((6aR,7S,10R)-13-((1-((2-oxa-7-azaspiro[3.5]nonan-7-yl)methyl)cyclopropyl)methoxy)-1-fluoro-5,6,6a,7,8,9,10,11-octahydro-4-oxa-3,11a,12,14,15-pentaaza[7,10]methanocyclohepta [4,5]cycloocta [1,2,3-de]naphthalen-2-yl)-5-methyl-4-(trifluoromethyl)aniline]: the values for the IC50 on WT KRAS (setting [1]) and at KRAS G12D (setting [2]) were 0.3 to 3 nM and less than 0.3 nM, respectively.

With `Cc1cc(N)cc(-c2nc3c4c(nc(OCC5(C)CC(F)CN(C6CCOCC6)C5)nc4c2F)N2C[C@H]4CC[C@H](N4)[C@H]2CCO3)c1C(F)(F)F` (single isomer, unassigned) [Example 232], the figures for the concentration for half-maximal inhibition (IC50) on WT KRAS (setting [1]) and on KRAS G12D (setting [2]) were 0.3 to 3 nM and less than 0.3 nM, respectively.

For `Cc1cc(N)cc(-c2nc3c4c(nc(OCC5(CN6CCOC7(CCC7)C6)CC5)nc4c2F)N2C[C@H]4CC[C@H](N4)[C@H]2CCO3)c1C(F)(F)F` [Example 121, 3-((6aR,7S,10R)-13-((1-((5-oxa-8-azaspiro[3.5]nonan-8-yl)methyl)cyclopropyl)methoxy)-1-fluoro-5,6,6a,7,8,9,10,11-octahydro-4-oxa-3,11a,12,14,15-pentaaza[7,10]methanocyclohepta [4,5]cycloocta[1,2,3-de]naphthalen-2-yl)-5-methyl-4-(trifluoromethyl)aniline], the figures for the IC50 on WT KRAS (setting [1]) and on KRAS G12D (setting [2]) were 3 to 1000 nM and less than 0.3 nM, respectively.

Consider `Cc1cc(N)cc(-c2nc3c4c(nc(OCC5(CN6CCC(O)(C(F)(F)F)C6)CC5)nc4c2F)N2C[C@H]4CC[C@H](N4)[C@H]2CCO3)c1C(F)(F)F` (mixture of isomers) [Example 92, 1-((1-((((6aR,7S, 10R)-2-(5-amino-3-methyl-2-(trifluoromethyl)phenyl)-1-fluoro-5,6,6a,7,8,9,10,11-octahydro-4-oxa-3,11a,12,14,15-pentaaza-7,10-methanocyclohepta [4,5]cycloocta[1,2,3-de]naphthalen-13-yl)oxy)methyl)cyclopropyl)methyl)-3-(trifluoromethyl) pyrrolidin-3-ol], for which the half-inhibitory concentration (IC50) on WT KRAS (setting [1]) was 3 to 1000 nM; at KRAS G12D (setting [2]), less than 0.3 nM.

Regarding `Cc1cc(N)cc(-c2nc3c4c(nc(OCC5(CN6CC(F)C6)CC5)nc4c2F)N2C[C@H]4CC[C@H](N4)[C@H]2CCO3)c1C(F)(F)F` [Example 69, 3-((6aR,7S,10R)-1-fluoro-13-((1-((3-fluoroazetidin-1-yl)methyl)cyclopropyl)methoxy)-5,6,6a,7,8,9,10,11-octahydro-4-oxa-3,11a,12,14,15-pentaaza-7,10-methanocyclohepta[4,5]cycloocta [1,2,3-de]naphthalen-2-yl)-5-methyl-4-(trifluoromethyl)aniline], the IC50 was 3 to 1000 nM at WT KRAS (setting [1]) and less than 0.3 nM on KRAS G12D (setting [2]).

With `Cc1cc(N)cc(-c2nc3c4c(nc(OCC5(CN6CCC(C)(C#N)C6)CC5)nc4c2F)N2C[C@H]4CC[C@H](N4)[C@H]2CCO3)c1C(F)(F)F` (stereo partly drawn) [Example 167, 1-((1-((((6aR,7S,10R)-2-(5-amino-3-methyl-2-(trifluoromethyl)phenyl)-1-fluoro-5,6,6a,7,8,9,10,11-octahydro-4-oxa-3,11a,12,14,15-pentaaza-7,10-methanocyclohepta[4,5]cycloocta[1,2,3-de]naphthalen-13-yl)oxy)methyl)cyclopropyl)methyl)-3-methylpyrrolidine-3-carbonitrile], the IC50 is 0.3 to 3 nM at WT KRAS (setting [1]) and less than 0.3 nM on KRAS G12D (setting [2]).

For orientation: IC50 means the concentration that gives 50% inhibition.

The values above are taken from patent US20260347373A1, “HETEROCYCLIC COMPOUNDS, COMPOSITIONS THEREOF, AND METHODS OF TREATMENT THEREWITH” (BeOne Medicines I GmbH, priority 2023, published 2026).
